This note sets out measurements from article PMC4076079, “Selective inhibitors of a PAF biosynthetic enzyme lysophosphatidylcholine acyltransferase 2” (Journal of Lipid Research, 2014).

The target of one data set is T1, hLPCAT2 (Homo sapiens, UniProt Q7L5N7).
T1 construct: expressed in transfected cells; host or cells: CHO-S-PAFR cells (microsomal fraction), with or without mcPAF stimulation
T1 sequence (Q7L5N7 1-544): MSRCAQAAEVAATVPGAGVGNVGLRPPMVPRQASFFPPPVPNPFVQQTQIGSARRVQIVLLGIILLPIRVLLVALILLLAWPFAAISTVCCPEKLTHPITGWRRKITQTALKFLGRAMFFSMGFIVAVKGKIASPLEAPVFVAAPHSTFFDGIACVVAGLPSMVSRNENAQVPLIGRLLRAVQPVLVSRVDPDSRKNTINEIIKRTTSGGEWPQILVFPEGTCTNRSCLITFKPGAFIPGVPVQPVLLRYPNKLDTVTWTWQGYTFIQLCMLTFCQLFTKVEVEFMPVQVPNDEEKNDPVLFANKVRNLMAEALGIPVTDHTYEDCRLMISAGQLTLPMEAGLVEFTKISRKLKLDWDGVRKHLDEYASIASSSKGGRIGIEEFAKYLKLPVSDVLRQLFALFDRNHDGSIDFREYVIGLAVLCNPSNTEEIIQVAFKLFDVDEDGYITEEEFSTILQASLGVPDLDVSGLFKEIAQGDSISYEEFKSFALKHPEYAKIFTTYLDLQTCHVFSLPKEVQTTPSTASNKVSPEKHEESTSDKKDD
Briefly: acyltransferase activity assay, 16:0/20:4 alkyl-PC product by LC-MS/MS. The class given is biochemical. To be noted: for IC50: 0, 0.2, 0.6, 2, 6 and 20 μM of each compound in triplicate, LC-MS/MS, read-out: IC50, product Alkyl-PC (16:0/20:4 alkyl-PC), enzyme hLPCAT2; for percentage inhibition, product 16:0/20:4 Alkyl-PC, hLPCAT2: 20 μM compound, microsomal fractions of nonstimulated CHO-S-PAFR cells, n = 3, mean ± SEM. How it is done: (§1) Microsomal protein fractions (0.5 μg) supplemented with the indicated compound concentrations were added to the reaction mixture containing 100 mM Tris-HCl (pH 7.4), 1 μM CaCl2, 0.015% Tween-20, and two substrates. For acetyltransferase activity, the substrates were 1 mM acetyl-CoA and 5 μM d4-lyso-PAF; for the acyltransferase activity of LPCAT1 or LPCAT2, the substrates were, respectively, palmitoyl-CoA and d31-16:0 LPC or arachidonoyl-CoA and d4-lyso-PAF (all 5 μM). Each lysophospholipid contained fatty acid at the sn-1 position. After incubation at 37°C for 5 min, the reactions were stopped by adding 300 μl methanol containing 17:0 LPC or 14:0/14:0 PC as an internal standard. Deuterium-labeled products were analyzed by LC-MS/MS (Waters, Milford, MA and Thermo Scientific, Waltham, MA). […]
(§2) Steps 2 to 5 screening: 96-well plate assay
(§3) Acetyltransferase and acyltransferase assays were developed in 96-well plates. The microsomal hLPCAT2, obtained from mcPAF-stimulated CHO-S-PAFR cells was used in steps 1, 2, and 5. The microsomal hLPCAT1 obtained from unstimulated CHO-S cells was used in steps 3 to 5. Each well of the 96-well plates contained 30 µl of 15 µg/ml protein, 600 nl of 2 mM compound, 30 µl buffer C, and two substrates (Fig. 1B and C).
(§4) Substrate concentrations were as follows: acetyl-CoA, 250 or 1000 µM acetyl-CoA; […]
(§5) arachidonoyl-CoA, 5 µM; palmitoyl-CoA, 5 µM; d4-lyso-PAF, 5 µM; and d31-LPC, 5 µM.
(§6) For step 5, compound concentrations were 0, 0.167, 0.67, 2, 6.7, and 20 µM. The deuterium-labeled products were measured by LC-MS/MS. Percentage inhibition (steps 2 to 4) or IC50 (step 5) was used as the hit criterion. […]
(§7) Step 7 screening: species-specific differences
(§8) To evaluate the effects on the activity of mouse or human LPCAT1 and LPCAT2, each microsomal fraction was obtained using CHO-S-PAFR cells with or without mcPAF (200 nM) stimulation for 5 min. Acetyltransferase and acyltransferase assays were performed with 20 µM of each compound. Percentage inhibition was calculated in each

The nature of data set [1]: cell viability assay (WST-8). To be noted: mouse, RAW-mLPCAT2 cells (RAW264.7 cells transfected with mLPCAT2), 36 h treatment, WST-8, data not shown, read-out: cytotoxicity IC50 (cell viability). Format: cell-based, mouse. The method, then: (§9) Cell viability was measured using a modified MTT [3-(4,5-dimethylthiazol-2-yl)-2,5-diphenyltetrazolium bromide] dye reduction assay using WST-8 [2-(2-methoxy-4-nitrophenyl)-3-(4-nitrophenyl)-5-(2,4-disulfophenyl)-2H-tetrazolium, monosodium salt; Dojindo Molecular Technologies, Inc., Kumamoto, Japan] according to the manufacturer’s instructions. […] or RAW-mLPCAT2 cells were seeded in 96-well plates (1 × 10^4 cells/well) for 8 h and then treated with a compound for 36 h. WST-8 was added for another 2 h and the 450 nm absorbance was measured using a microplate reader (Bio-Rad). Cell viability was expressed as a percentage of vehicle-treated control values. To observe the effects of the incubation time on cell viability, 0.4 × 10^4 RAW-mLPCAT2 cells were treated with compounds for 1 or 6 h before the WST-8 assay.
(§10) Step 8 screening: cell viability assay
(§11) Wild-type RAW264.7 cells and RAW264.7 cells transfected with mLPCAT2 or control plasmid were used. Cells were cultured for 36 h with 0, 0.06, 0.2, 0.6, 2, 6, and 20 µM of compounds in 96-well plates and assayed for viability with WST-8. […]
(§12) The data were normalized to each positive control (100% activation). Percentage inhibition or IC50 were determined in each screening step. To assess screening quality, the percentage coefficient of variance and the Z’ factor was calculated for each plate or each assay as described previously (2).
(Tetrazolium assays rely on reduction of a dye to a coloured formazan, in cell work by metabolically active cells.)

For a further data set, the system named is RAW-mLPCAT2 cells. Briefly: cell viability assay (WST-8). Format: cell-based, mouse. To be noted: Mus musculus, 1 h pretreatment. How it is done:
as §9, §10, §11, §12

Another data set deals with T2, hLPCAT1 (Homo sapiens, UniProt Q8NF37).
T2 construct: expressed in transfected cells
T2 sequence (Q8NF37 1-534): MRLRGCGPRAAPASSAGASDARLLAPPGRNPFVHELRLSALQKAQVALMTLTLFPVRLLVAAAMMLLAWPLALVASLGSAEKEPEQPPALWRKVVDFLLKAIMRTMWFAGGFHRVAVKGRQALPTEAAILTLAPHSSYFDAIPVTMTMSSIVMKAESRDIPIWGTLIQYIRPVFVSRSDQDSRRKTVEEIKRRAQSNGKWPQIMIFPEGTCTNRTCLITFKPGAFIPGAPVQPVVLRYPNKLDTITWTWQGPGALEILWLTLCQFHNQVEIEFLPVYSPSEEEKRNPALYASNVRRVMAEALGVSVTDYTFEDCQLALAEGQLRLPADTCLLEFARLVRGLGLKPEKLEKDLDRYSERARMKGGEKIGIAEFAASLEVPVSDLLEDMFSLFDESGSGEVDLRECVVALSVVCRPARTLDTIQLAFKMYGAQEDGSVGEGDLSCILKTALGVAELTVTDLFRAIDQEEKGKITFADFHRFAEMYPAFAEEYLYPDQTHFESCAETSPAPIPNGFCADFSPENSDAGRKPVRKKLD
Kind of data set: lyso-PAFAT (acetyltransferase) activity assay, PAF product by LC-MS/MS. Format: biochemical. To be noted: for IC50: 0, 0.2, 0.6, 2, 6 and 20 μM of each compound in triplicate, LC-MS/MS, read-out: IC50, product PAF, enzyme hLPCAT1; for percentage inhibition, product PAF, hLPCAT1: 20 μM compound, microsomal fractions of nonstimulated CHO-S-PAFR cells, n = 3, mean ± SEM. The method, then:
as §1, §2, §3, §4, §5, §6, §7, §8

Turning to `CCCCOC(=O)c1ccc(N2C(=O)C(Cl)=C(Cl)C2=O)cc1` [TSI-11, butyl 4-(3,4-dichloro-2,5-dioxopyrrol-1-yl)benzoate], the IC50 at hLPCAT2 was 0.33 µM; with RAW-mLPCAT2 cells it was > 60 µM; at hLPCAT1, 1.01 µM. The “percentage inhibition, product 16:0/20:4 Alkyl-PC, hLPCAT2” value (from here on “percentage inhibition … hLPCAT2”) on hLPCAT2 is listed as 80.4 ± 2.7 percentage. Moreover, the IC50 at 36 h in data set [1] is > 20 µM. Moreover, the “percentage inhibition, product PAF, hLPCAT1” value on hLPCAT1 stood at 78.6 ± 2.8 percentage.

On to `O=C1C(Cl)=C(N2CCOCC2)C(=O)N1c1ccc(Oc2ccccc2)cc1` [TSI-02, 3-chloro-4-morpholin-4-yl-1-(4-phenoxyphenyl)pyrrole-2,5-dione], for which the IC50 on hLPCAT2 was determined as 1.16 µM; at hLPCAT1, 8 µM.

For the molecule `CC(C)OC(=O)c1ccc(N2C(=O)C(Cl)=C(Nc3ccccc3O)C2=O)cc1` [TSI-07], on hLPCAT2, the IC50 is 13.3 µM and the “percentage inhibition … hLPCAT2” value was 83.1 ± 4.3 percentage. Moreover, the IC50 at 36 h in data set [1] was > 20 µM. Further, the IC50 with RAW-mLPCAT2 cells is > 60 µM. At hLPCAT1, the IC50 was > 20 µM and the “percentage inhibition, product PAF, hLPCAT1” value amounted to 11.9 ± 13.1 percentage.

For the molecule `CC(C)OC(=O)c1ccc(N2C(=O)C(Cl)=C(Cl)C2=O)cc1` [TSI-01, propan-2-yl 4-(3,4-dichloro-2,5-dioxopyrrol-1-yl)benzoate], on hLPCAT2, the IC50 was found to be 1.27 µM and the “percentage inhibition … hLPCAT2” value was 95.2 ± 1.3 percentage. For the same molecule, the IC50 at 36 h in data set [1] is > 20 µM. In addition, in the data set with RAW-mLPCAT2 cells, the IC50 was > 60 µM. For the same molecule, on hLPCAT1, the IC50 was 3.02 µM and the “percentage inhibition, product PAF, hLPCAT1” value is reported as 75.9 ± 5.2 percentage.

As for `CCCOC(=O)c1ccc(N2C(=O)C(Cl)=C(Cl)C2=O)cc1` [TSI-10], the IC50 at hLPCAT2 was 0.3 µM; in the data set on RAW-mLPCAT2 cells it was > 60 µM; at hLPCAT1, 2.42 µM. Besides, the “percentage inhibition … hLPCAT2” value at hLPCAT2 is 85.4 ± 3.0 percentage. Moreover, in data set [1], the IC50 at 36 h was > 20 µM. Further, at hLPCAT1, the “percentage inhibition, product PAF, hLPCAT1” value worked out at 76.1 ± 4.4 percentage.
